Test results reported in patent US9586914B2, “Modulators of C3a receptors” (THE UNIVERSITY OF QUEENSLAND, priority 2011, dated 2017).

How the values were obtained:
Assay type in all cases: cell-based
[1] = target: T1, C3aR (Homo sapiens, UniProt Q16581); experiment: Desensitization experiments (Ca^2+ efflux after hC3a desensitization); conditions: hC3a 3 μM first; second addition of 1 μM compound; HMDM
T1 construct: peripheral blood mononuclear cells were isolated from buffy coat (obtained from Australian Red Cross Blood Service, Kelvin Grove); endogenous in cells; host or cells: primary human monocyte-derived macrophages (HMDM) differentiated from CD14+ monocytes of donor buffy coat
T1 sequence (Q16581 1-482): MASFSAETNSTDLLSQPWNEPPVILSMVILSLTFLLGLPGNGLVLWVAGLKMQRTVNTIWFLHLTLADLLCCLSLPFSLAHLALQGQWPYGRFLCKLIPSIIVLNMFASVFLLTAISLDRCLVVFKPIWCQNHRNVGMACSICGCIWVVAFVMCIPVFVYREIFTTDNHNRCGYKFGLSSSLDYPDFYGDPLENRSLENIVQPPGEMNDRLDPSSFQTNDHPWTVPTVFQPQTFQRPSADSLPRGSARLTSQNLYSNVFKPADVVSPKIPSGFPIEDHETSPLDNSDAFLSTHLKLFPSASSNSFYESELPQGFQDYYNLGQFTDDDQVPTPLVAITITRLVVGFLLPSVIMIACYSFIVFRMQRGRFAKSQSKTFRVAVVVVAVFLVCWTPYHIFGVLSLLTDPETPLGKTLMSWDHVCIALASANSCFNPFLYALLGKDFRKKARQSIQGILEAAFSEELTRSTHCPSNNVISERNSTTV
Method: Desensitization experiments were used to measure the selectivity of various ligands for C3aR, since this can help to clarify whether the non-peptidic ligands bind selectively to C3aR over other GPCRs that signal through intracellular calcium release.
The hC3a (3 μM) was administered to human monocyte derived macrophage cells, which produces an efflux of intracellular Ca^2+ that dissipates after 4-5 mins (FIGS. 4A and 4B). A second addition of 3 μM hC3a after 5 mins has no effect, due to desensitization of the receptor through either receptor (C3a receptor) phosphorylation or receptor internalization from the cell surface.

[2] = target: T1, C3aR; experiment: Calcium mobilization assay in HMDM (agonist/antagonist activity); conditions: Table 9, Ca^2+ mobilization, HMDM
Procedure, shortened: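 Human monocyte-derived macrophages, 5×10^4 cells/well, loaded 1 h at 37 °C with 4 μM Fluo-3 in HBSS/HEPES/probenecid buffer, pH 7.4. Agonist mode: calcium release read 300 s; antagonist mode: 900 s compound preincubation then agonist, read 300 s (ex 485/em 520 nm); compared with hC3a.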

[3] = tested on: human kidney tubule cells; experiment: ELISA of cytokines from human kidney tubule cells; conditions: for IL-8: 0 μM gives 1.8 ± 0.3; for IL-6: 0 μM gives 2.4 ± 0.4; for TNF: 0 μM gives 10.1 ± 2; for GMCSF (pg/ml/ml): 0 μM gives 71.3 ± 23; for Fibronectin: 0 μM gives 75.2 ± 29
Method: Human renal cortical tissue (10 g) was minced finely, washed several times and agitated for 20 minutes at 37° C. in a Krebs-Henseleit buffer (KHB) containing collagenase type II (1 mg/mL), Cold KHB was added and the solution passed through a 297 μm sieve (50 Mesh, Sigma). After washing three times the tubular fragments were re-suspended in 45% percoll-KHB and centrifuged at 20000×g. A high density band, previously shown to be tubule fragments, was removed and cultured in a serum free, hormonally defined DMEM/F12 media (containing 10 ng/mL epidermal growth factor, 5 μg/mL insulin, […] transferrin, 50 nM hydrocortisone, […] prostaglandin E1, 50 nM selenium and 5 pM triiodothyronine). All experiments were performed on confluent passage 2 HTEC made quiescent by two washes followed by incubation for 24 h in serum and growth factor free DMEM/F12 media. These cells were incubated with C3aR agonists and antagonists.
Supernatant and lysates from cell culture treatment samples were collected and stored separately at −20° C. until further use. Human IL1B, IL8, IL6 and TNF levels were determined using the respective OptEIA™ ELISA kit (BD Biosciences, San Diego, USA) according to the manufacturer's instructions. The readings were recorded on a FLUOstar Optima (BMG LabTechnologies, Offenburg, Germany).

SMILES: CC(C)C[C@H](NC(=O)c1c[nH]c2ccccc12)c1nc(C(=O)N[C@@H](CCCNC(=N)N)C(=O)O)co1 [Compound 8, 3-Indole Carboxylic Acid-Leucine-Oxazole-Arginine-OH]
- Ca^2+ efflux on addition after first desensitization with hC3a (selectivity for C3aR over other GPCRs) [1]: caused a second efflux of intracellular Ca^2+
- pEC50 ± SEM [2]: 8.15 ± 0.10
- EC50 ([2]; read-out: EC50): 7.2 nM
- IL-8 ([3]; compound 8 at 1 μM): 1.9 ± 0.4 ng/mL
- IL-6 ([3]; compound 8 at 1 μM): 2.5 ± 0.1 ng/mL
- TNF ([3]; compound 8 at 1 μM): 9.9 ± 1 pg/mL
- GMCSF (pg/ml/ml) ([3]; compound 8 at 1 μM): 74.6 ± 7.1 pg/ml/ml
- Fibronectin ([3]; compound 8 at 1 μM): 89.6 ± 11 ng/mL
- IL-8 ([3]; compound 8 at 2.5 μM): 5.7 ± 2 ng/mL
- IL-6 ([3]; compound 8 at 2.5 μM): 8.2 ± 0.6 ng/mL
- TNF ([3]; compound 8 at 2.5 μM): 12.3 ± 1 pg/mL
- GMCSF (pg/ml/ml) ([3]; compound 8 at 2.5 μM): 142.8 ± 10.9 pg/ml/ml
- Fibronectin ([3]; compound 8 at 2.5 μM): 89.0 ± 5 ng/mL
- IL-8 ([3]; compound 8 at 5 μM): 31.5 ± 5 ng/mL
- IL-6 ([3]; compound 8 at 5 μM): 30.9 ± 2.5 ng/mL
- TNF ([3]; compound 8 at 5 μM): 76.6 ± 13 pg/mL
- GMCSF (pg/ml/ml) ([3]; compound 8 at 5 μM): 738.0 ± 127.6 pg/ml/ml
- Fibronectin ([3]; compound 8 at 5 μM): 149.5 ± 21 ng/mL
- IL-8 ([3]; compound 8 at 10 μM): 30.4 ± 8 ng/mL
- IL-6 ([3]; compound 8 at 10 μM): 33.5 ± 5 ng/mL
- TNF ([3]; compound 8 at 10 μM): 117.8 ± 53 pg/mL
- GMCSF (pg/ml/ml) ([3]; compound 8 at 10 μM): 1056 ± 147.8 pg/ml/ml
- Fibronectin ([3]; compound 8 at 10 μM): 172.9 ± 20 ng/mL
- IL-8 ([3]; compound 8 at 20 μM): 76.4 ± 18 ng/mL
- IL-6 ([3]; compound 8 at 20 μM): 55.8 ± 12 ng/mL
- TNF ([3]; compound 8 at 20 μM): 277.9 ± 28 pg/mL
- GMCSF (pg/ml/ml) ([3]; compound 8 at 20 μM): 2853 ± 399 pg/ml/ml
- Fibronectin ([3]; compound 8 at 20 μM): 200.9 ± 28 ng/mL
- Induction at 40 μM, Fibronectin ([3]; compound 8 at 40 μM vs 0 μM): 2-fold
- Induction at 40 μM, GMCSF ([3]; compound 8 at 40 μM vs 0 μM): 80-fold
- Induction at 40 μM, IL-6 ([3]; compound 8 at 40 μM vs 0 μM): 40-fold
- Induction at 40 μM, IL-8 ([3]; compound 8 at 40 μM vs 0 μM): 75-fold
- Induction at 40 μM, TNF ([3]; compound 8 at 40 μM vs 0 μM): 75-fold
- IL-8 ([3]; compound 8 at 40 μM): 135.0 ± 9 ng/mL
- IL-6 ([3]; compound 8 at 40 μM): 96.9 ± 29 ng/mL
- TNF ([3]; compound 8 at 40 μM): 757.8 ± 13 pg/mL
- GMCSF (pg/ml/ml) ([3]; compound 8 at 40 μM): 5790 ± 726 pg/ml/ml
- Fibronectin ([3]; compound 8 at 40 μM): 148.0 ± 32 ng/mL
- Secretion of inflammatory cytokines ([3]; primary human kidney cells): induces secretion of inflammatory cytokines
